In US8546404B2, “Compounds that are ERK inhibitors” (Merck Sharp & Dohme, priority 2005, dated 2013) one finds IC50 data, which are given here for 43 compounds.

The IC50 is the concentration that gives 50% inhibition.

“And” between values parts separate entries of the source, which are not always exact repeats. Equal entries are not always repeated.

Chain of fully phosphorylated, active Mouse ERK2 protein (P63085 whole entry): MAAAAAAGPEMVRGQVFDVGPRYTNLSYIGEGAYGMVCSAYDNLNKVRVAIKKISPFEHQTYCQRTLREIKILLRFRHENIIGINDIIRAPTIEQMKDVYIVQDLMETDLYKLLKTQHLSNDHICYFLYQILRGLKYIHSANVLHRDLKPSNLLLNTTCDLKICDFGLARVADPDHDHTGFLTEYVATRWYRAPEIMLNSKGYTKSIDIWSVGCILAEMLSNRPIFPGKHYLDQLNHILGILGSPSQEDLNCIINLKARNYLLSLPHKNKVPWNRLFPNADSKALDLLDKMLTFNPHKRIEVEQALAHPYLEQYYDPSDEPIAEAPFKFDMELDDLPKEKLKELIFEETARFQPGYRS

The first experiment concerns the target fully phosphorylated, active Mouse ERK2 protein (Mus musculus (Mouse), UniProt P63085). Kind of experiment: Active ERK2 Assay (IMAP format). Format: biochemical. As to conditions: AERK2 IC50. Here is the method: Activated ERK2 activity was also determined in the IMAP assay format using the procedure outlined above. […] Reactions proceeded for 30 minutes before termination by addition of 60 μl IMAP detection beads in binding buffer. Plates were read as above after 30 minute binding equilibration.
`O=C(Nc1ccc2[nH]nc(-c3ccncc3)c2c1)[C@@H]1CCN(CC(=O)N2CCN(c3ccc(-c4ncccn4)cc3)CC2)C1` [Example 6] showed an IC50 of 0.8 nM.

The same experiment, now with this note: read-out: AERK2 IC50.
`O=C(Nc1ccc2[nH]nc(-c3ccc(F)cc3)c2c1)[C@@H]1CCN(CC(=O)N2CCN(c3ccc(-c4ncccn4)cc3)CC2)C1` (stereo in doubt) [Example 1, 1-{2-Oxo-2-[4-(4-pyrimidin-2-yl-phenyl)-piperazin-1-yl]-ethyl}-pyrrolidine-3-carboxylic acid [3-(4-fluoro-phenyl)-1H-indazol-5-yl]-amide]: the IC50 lay in the range of 0.16 to 18 nM.
For the compound `O=C(Nc1ccc2[nH]nc(-c3c[nH]cn3)c2c1)[C@@H]1CCN(CC(=O)N2CCN(c3ccc(-c4ncccn4)cc3)CC2)C1` (stereo in doubt) [Example 61, 1-{2-Oxo-2-[4-(4-pyrimidin-2-yl-phenyl)-piperazin-1-yl]-ethyl}-pyrrolidine-3-carboxylic acid [3-(1H-imidazol-4-yl)-1H-indazol-5-yl]-amide], the IC50 is 0.16 to 18 nM.
On to `CC(=O)N/N=C(\C)C1(C(=O)Nc2ccc3[nH]nc(-c4ccc(F)cc4)c3c2)CCN(CC(=O)N2CCN(c3ccc(-c4ncccn4)cn3)C[C@H]2C)C1` (stereo in doubt) [Example 358, 3-[1-(Acetyl-hydrazono)-ethyl]-1-{2-[2-methyl-4-(5-pyrimidin-2-yl-pyridin-2-yl)-piperazin-1-yl]-2-oxo-ethyl}-pyrrolidine-3-carboxylic acid [3-(4-fluoro-phenyl)-1H-indazol-5-yl]-amide], for which the concentration for half-maximal inhibition (IC50) is 0.16 to 18 nM.
For `Cc1cnc(-c2ccc(N3CCN(C(=O)CN4CCC(NC=O)(C(=O)Nc5ccc6[nH]nc(-c7ccc(F)cc7)c6c5)C4)[C@H](C)C3)cc2)nc1` (stereo in doubt) [Example 362, 3-Formylamino-1-(2-{2-methyl-4-[4-(5-methyl-pyrimidin-2-yl)-phenyl]-piperazin-1-yl}-2-oxo-ethyl)-pyrrolidine-3-carboxylic acid [3-(4-fluoro-phenyl)-1H-indazol-5-yl]-amide], the IC50 lay in the range of 0.16 to 18 nM.
The same measure, in the same setting: next, `CCNc1nnc(-c2ccc(C3CCN(C(=O)CN4CC[C@@](OC)(C(=O)Nc5ccc6[nH]nc(-c7ccc(F)cc7)c6c5)C4)CC3)cc2)o1` (stereo in doubt) [Example 623, 1-(2-{4-[4-(5-Ethylamino-[1,3,4]oxadiazol-2-yl)-phenyl]-piperidin-1-yl}-2-oxo-ethyl)-3-methoxy-pyrrolidine-3-carboxylic acid [3-(4-fluoro-phenyl)-1H-indazol-5-yl]-amide]: 0.16 to 18 nM; `N#Cc1cccc(-c2n[nH]c3ccc(NC(=O)[C@@H]4CCN(CC(=O)N5CCN(c6ccc(-c7ncccn7)cc6)CC5)C4)cc23)c1` [Example 2, 1-{2-Oxo-2-[4-(4-pyrimidin-2-yl-phenyl)-piperazin-1-yl]-ethyl}-pyrrolidine-3-carboxylic acid[3-(3-cyano-phenyl)-1H-indazol-5-yl]-amide]: 0.16 to 18 nM; `CCCCNC(=O)c1n[nH]c2ccc(NC(=O)[C@@H]3CCN(CC(=O)N4CCN(c5ccc(-c6ncccn6)cc5)CC4)C3)cc12` [Example 86]: 0.16 to 18 nM.
In the case of `O=C(Nc1ccc2[nH]nc(-c3ccc(F)cc3)c2c1)C1CCN(CC(=O)N2CCN(c3ccc(-c4ncccn4)cn3)CC2)C1` (stereo not shown) [Example 98], the half-maximal inhibitory concentration (IC50) fell in the range of 0.16 to 18 nM.
Still for that read-out and setting: as for `C[C@@H]1CN(c2ccc(-c3ncccn3)cn2)CCN1C(=O)CN1CCC(C(=O)Nc2ccc3[nH]nc(-c4ccc(F)cc4)c3c2)C1` (stereo partly shown) [Example 100], the figure is 0.16 to 18 nM and 0.16 to 1.5 nM; as for `Cc1cnc(-c2ccc(N3CCN(C(=O)CN4CCC(C(=O)Nc5ccc6[nH]nc(-c7ccc(F)cc7)c6c5)C4)[C@H](C)C3)cc2)nc1` (stereo partly shown) [Example 120], 0.16 to 18 nM.
Same read-out and setting: next, `COCC1(C(=O)Nc2ccc3[nH]nc(-c4ccc(F)cc4)c3c2)CCN(CC(=O)N2CCN(c3ccc(-c4ncccn4)cc3)CC2)C1` (stereo not shown) [Example 125, 3-methoxymethyl-1-{2-oxo-2-[4-(4-pyrimidin-2-yl-phenyl)-piperazin-1-yl]-ethyl}-pyrrolidine-3-carboxylic acid [3-(4-fluoro-phenyl)-1H-indazol-5-yl]-amide]: 0.16 to 18 nM; `CC(C)(C)OC(=O)N1CCC(O)(c2nccs2)CC1` [Example 132, 4-Hydroxy-4-thiazol-2-yl-piperidine-1-carboxylic acid tert-butyl ester]: 0.16 to 18 nM; `CNC(=O)c1n[nH]c2ccc(NC(=O)C3CCN(CC(=O)N4CCC(C#Cc5ncccn5)CC4)C3)cc12` (stereo not shown) [Example 142, 5-({1-[2-oxo-2-(4-pyrimidin-2-ylethynyl-piperidin-1-yl)-ethyl]-pyrrolidine-3-carbonyl}-amino)-1H-indazole-3-carboxylic acid methylamide]: 0.16 to 18 nM.
Consider `CNC(=O)c1n[nH]c2ccc(NC(=O)[C@@H]3CCN(CC(=O)N4C[C@@H]5C[C@H]4CN5c4ccc(-c5ncccn5)cc4)C3)cc12` [Example 152], for which the 50% inhibitory concentration (IC50) was 0.16 to 18 nM.
Consider `CNC(=O)c1n[nH]c2ccc(NC(=O)[C@@H]3CCN(CC(=O)N4C[C@@H]5C[C@H]4CN5c4ccc(-c5ncc(C)cn5)cc4)C3)cc12` [Example 154], for which the IC50 was 0.16 to 18 nM.
For `CNC(=O)c1n[nH]c2ccc(NC(=O)[C@@H]3CCN(CC(=O)N4CC=C(c5nccs5)CC4)C3)cc12` [Example 168], the IC50 was in the range of 0.16 to 18 nM.
For the compound `CNC(=O)c1n[nH]c2ccc(NC(=O)[C@@H]3CCN(CC(=O)N4CCC(c5ccc(-c6ncccn6)cc5)CC4)C3)cc12` [Example 176], the IC50 fell in the range of 0.16 to 18 nM.
On to `O=C(Nc1ccc2[nH]nc(-c3ccncc3)c2c1)[C@@H]1CCN(CC(=O)N2C[C@@H]3C[C@H]2CN3c2ccc(-c3ncc(F)cn3)cc2)C1` [Example 183], for which the IC50 was 0.16 to 18 nM and 0.16 to 1.5 nM and 0.16 nM.
The same measure, in the same setting: as for `O=C(Nc1ccc2[nH]nc(-c3ccc(F)cc3)c2c1)[C@@H]1CCN(CC(=O)N2C[C@@H]3C[C@H]2CN3c2ccc(-c3ncccn3)cc2)C1` [Example 184], the figure is 0.16 to 18 nM and 0.16 to 1.5 nM; as for `O=C(Nc1ccc2[nH]nc(-c3ccncc3)c2c1)[C@@H]1CCN(CC(=O)N2CCN(c3ccc(-c4ncc(F)cn4)cc3)CC2)C1` [Example 186], 0.16 to 18 nM and 0.16 to 1.5 nM and 0.78 nM; as for `C=Cc1cnc(N2C[C@@H]3C[C@H]2CN3C(=O)CN2CC[C@@H](C(=O)Nc3ccc4[nH]nc(-c5ccncc5)c4c3)C2)nc1` [Example 250], 0.16 to 18 nM.
On to `O=C(CN1CCC(CF)(C(=O)Nc2ccc3[nH]nc(-c4ccc(F)cc4)c3c2)C1)N1C[C@@H]2C[C@H]1CN2c1ccc(-c2ncccn2)cc1` (stereo partly shown) [Example 251], for which the half-maximal inhibitory concentration (IC50) is 0.16 to 18 nM.
For `C=CCC1(C(=O)Nc2ccc3[nH]nc(-c4ccncc4)c3c2)CCN(CC(=O)N2CCN(c3ccc(-c4cnccn4)cc3)CC2)C1` (stereo not shown) [Example 261], the IC50 was 0.16 to 18 nM and 0.16 to 1.5 nM.
As for `COCC1(C(=O)Nc2ccc3[nH]nc(-c4ccncc4)c3c2)CCN(CC(=O)N2CCN(c3ccc(-c4ncccn4)cc3)CC2)C1` (stereo not shown) [Example 264], the 50% inhibitory concentration (IC50) fell in the range of 0.16 to 18 nM.
The same measure, in the same setting: next, `O=C(CN1CCC(CF)(C(=O)Nc2ccc3[nH]nc(-c4ccncc4)c3c2)C1)N1C[C@@H]2C[C@H]1CN2c1ccc(-c2ncccn2)cc1` (stereo partly shown) [Example 269]: 0.16 to 18 nM; `C=CCC1(C(=O)Nc2ccc3[nH]nc(-c4ccncc4)c3c2)CCN(CC(=O)N2C[C@@H]3C[C@H]2CN3c2ccc(-c3ncc(F)cn3)cc2)C1` (stereo partly shown) [Example 271]: 0.16 to 18 nM; `O=C(CN1CCC(CF)(C(=O)Nc2ccc3[nH]nc(-c4ccncc4)c3c2)C1)N1CCN(c2nccs2)CC1` (stereo not shown) [Example 282]: 0.16 to 18 nM.
For `O=C(CN1CCC(CN2CCOCC2)(C(=O)Nc2ccc3[nH]nc(-c4ccncc4)c3c2)C1)N1CCN(c2nccs2)CC1` (stereo not shown) [Example 286], the 50% inhibitory concentration (IC50) was 0.16 to 18 nM.
Take `C=CCC1(C(=O)Nc2ccc3[nH]nc(-c4ccncc4)c3c2)CCN(CC(=O)N2CCN(c3ccc(-c4ncccn4)cc3)CC2)C1` (stereo not shown) [Example 289]: the half-inhibitory concentration (IC50) is 0.16 to 18 nM.
`CCCC1(C(=O)Nc2ccc3[nH]nc(-c4ccncc4)c3c2)CCN(CC(=O)N2CCN(c3ccc(-c4ncccn4)cc3)CC2)C1` (stereo not shown) [Example 290]: the IC50 was in the range of 0.16 to 18 nM.
For the compound `C#CCC1(C(=O)Nc2ccc3[nH]nc(-c4ccncc4)c3c2)CCN(CC(=O)N2CCN(c3ccc(-c4ncccn4)cc3)CC2)C1` (stereo not shown) [Example 292], the IC50 was in the range of 0.16 to 18 nM.
For `C=CCC1(C(=O)Nc2ccc3[nH]nc(-c4ccncc4)c3c2)CCN(CC(=O)N2CCN(c3ccc(-c4ncc(F)cn4)cc3)CC2)C1` (stereo not shown) [Example 294], the half-maximal inhibitory concentration (IC50) fell in the range of 0.16 to 18 nM.
On the same count and under the same terms, next, `COCC1(C(=O)Nc2ccc3[nH]nc(-c4ccncc4)c3c2)CCN(CC(=O)N2CCN(c3ccc(-c4ncc(F)cn4)cc3)CC2)C1` (stereo not shown) [Example 302]: 0.16 to 18 nM; `COCC1(C(=O)Nc2ccc3[nH]nc(-c4ccncc4)c3c2)CCN(CC(=O)N2C[C@@H]3C[C@H]2CN3c2ccc(-c3ncc(F)cn3)cc2)C1` (stereo partly shown) [Example 303]: 0.16 to 18 nM; `COCC1(C(=O)Nc2ccc3[nH]nc(-c4ccncc4)c3c2)CCN(CC(=O)N2CCN(c3ccc(-c4ncccn4)cn3)C[C@H]2C)C1` (stereo partly shown) [Example 304]: 0.16 to 18 nM.
`COCC1(C(=O)Nc2ccc3[nH]nc(-c4ccncc4)c3c2)CCN(CC(=O)N2CC=C(c3nccs3)CC2)C1` (stereo not shown) [Example 306]: the half-maximal inhibitory concentration (IC50) is 0.16 to 18 nM.
Consider `O=C(Nc1ccc2[nH]nc(-c3ccncc3)c2c1)[C@@H]1CCN(CC(=O)N2CCc3ccccc3C2)C1` [Example 332], for which the IC50 was 0.16 to 18 nM.
For the compound `O=C(Nc1ccc2[nH]nc(-c3ccncc3)c2c1)[C@@H]1CCN(CC(=O)N2CCc3ncccc3C2)C1` [Example 333], the 50% inhibitory concentration (IC50) lay within 0.16 to 18 nM.
For the compound `CSC1(C(=O)Nc2ccc3[nH]nc(-c4ccc(F)cc4)c3c2)CCN(CC(=O)N2CCN(c3ccc(-c4ncccn4)cc3)CC2)C1` (stereo not shown) [Example 338], the IC50 is 0.16 to 18 nM.
Take `CCOC1(C(=O)Nc2ccc3[nH]nc(-c4ccnc(C)c4)c3c2)CCN(CC(=O)N2CCN(c3ccc(-c4ncccn4)cc3)CC2)C1` (stereo not shown) [Example 343]: the IC50 is 0.16 to 18 nM.
Same read-out and setting: next, `CO[C@@]1(C(=O)Nc2ccc3[nH]nc(-c4ccc(F)cc4)c3c2)CCN(CC(=O)N2CC=C(c3ccc(-c4ncccn4)cc3F)CC2)C1` [Example 606]: 0.16 to 18 nM.
Still for that read-out and setting: as for `CON(C(=O)[C@@H]1CCN(CC(=O)N2CC=C(c3ccc(-c4ncccn4)cc3)CC2)C1)c1ccc2[nH]nc(-c3ccncc3)c2c1` [Example 611], the figure is 0.16 to 18 nM.
